This note sets out measurements from publication PMC8279416, “Structural Fine-Tuning of Desmuramylpeptide NOD2 Agonists Defines Their In Vivo Adjuvant Activity” (Journal of Medicinal Chemistry, 2021).

One assay deals with NIH/OlaHsd mice. The experiment in a line: In vivo ovalbumin-specific antibody response, second experiment (neutral, anionic, mannosylated liposomes). More on the design: species or system mouse. As to conditions: for Log10 (anti-OVA IgG1/anti-OVA IgG2a): second in vivo experiment, 0.15 μmol adjuvant, one week after second booster, mean ± SEM of 5 mice. The procedure: To determine whether the adjuvanticity of 75 can be modulated through changes to the liposomal formulation, a second in vivo experiment was designed in which the adjuvant activities of three different liposomal compositions were compared. Neutral liposomes were prepared from egg phosphatidylcholine and cholesterol.
Multilamellar liposomes were prepared by the modified thin lipid film method as described previously.[130],[131] For the preparation of neutral liposomes, a 7:5 molar ratio of egg-phosphatidylcholine and cholesterol was used. For the preparation of negatively charged liposomes, a 7:5:1 molar ratio of egg-phosphatidylcholine, cholesterol, and dicetylphosphate was used, while a 7:5:0.5 molar ratio of egg-phosphatidylcholine, cholesterol, and Man-PEG-Pam was used in the preparation of mannosylated liposomes. Lipids (total lipid concentration, 4 mg/mL) were dissolved in chloroform/methanol (2:1). A methanol or chloroform/methanol solution of MDP or the desmuramylpeptides was added to the lipid solution for a final concentration of 2 mM and 1.5 mM for the first (Figure 10) and second (Figure 11) experiments, respectively. After rotary evaporation of the solvent, the remaining lipid film was dried in vacuum for 1 h and then dispersed by gentle handshaking in an ovalbumin solution in saline (0.0667 and 0.1 mg/mL for the first and second experiments, respectively). This was then left overnight at 4 °C to swell and stabilize. Liposome size was reduced by sonification. Nonentrapped material was not separated from liposomes, and the complete liposome suspension was used for immunizations.
For the first experiment (Figure 10), sex-matched NIH/OlaHsd mice (five per group) were immunized subcutaneously in the tail base and boosted one time after 21 days. The injection volume in all experimental groups was 0.15 mL per mouse, which corresponds to 10 μg of OVA, […], and 0.30 μmol of MDP and desmuramylpeptides. For the second experiment (Figure 11), sex-matched NIH/OlaHsd mice (five per group) were immunized and boosted two times subcutaneously into the tail base at 21-day intervals. The injection volume in all experimental groups was 0.1 mL per mouse, which corresponds to 10 μg of OVA, 400 μg of lipids, and 0.15 μmol of MDP and 75. The mice were anesthetized with ip application of ketamine/xylazine (25 mg/kg each) prior to blood collection from the axillary plexus on the seventh day after the last booster dose. Individual serum from each animal was decomplemented at 56 °C for 30 min and then stored at −20 °C until tested.
ELISA assays were performed as detailed previously.[46] Briefly, high-binding ELISA plates (Costar, U.S.A.) were coated with a 15 μg/mL solution of ovalbumin in carbonate buffer, pH 9.6, and incubated overnight at room temperature. Nonspecific antibody binding was blocked with 0.5% w/v bovine serum albumin in PBS-T (0.05% (v/v) Tween 20 in phosphate-buffered saline) for 2 h at 37 °C. After washing, five serial dilutions of mice sera and standard preparations were added in duplicate. Plates were incubated overnight at room temperature, washed, and analyzed for ovalbumin-specific IgG levels by incubation with HRP-conjugated goat anti-mouse IgG (2 h at 37 °C) and then, after washing, with 0.6 mg/mL o-phenylenediaminedihydrochloride solution in citrate-phosphate buffer, pH 5.0, with 0.5 μL of 30% H2O2 per milliliter for 30 min at room temperature in the dark. The enzymatic reaction was stopped with 12.5% H2SO4, and absorbance at 492 nm was measured using a microplate reader (Thermo Fisher Scientific, Waltham, MA, U.S.A.). For the determination of ovalbumin-specific IgG1 and IgG2a, the plates were incubated with biotin-conjugated rat anti-mouse IgG1 or IgG2a (2 h at 37 °C) and subsequently with streptavidin–peroxidase for another 2 h at 37 °C. After washing, the substrate solution was added and incubated for 30 min at room temperature in the dark, as described above. […]

Assay [1] has as its system BMDC/CD4+ T-cell cocultures. The experiment in a line: T cell cytokine release in BMDC/T-cell cocultures. The class given is cell-based, mouse. As to conditions: BMDCs pretreated with 10 μM, CD4+ T cells, 72 h. The procedure: To evaluate the adjuvant potential of the two most-promising desmuramylpeptides, 68 and 75, in terms of their effects on DC-mediated activation of CD4^+ and CD8^+ T cells, we used an in vitro antigen-presentation assay with C57BL/6 mouse bone-marrow-derived DCs (BMDCs). Following stimulation with 68 and 75 (1 or 10 μM) in the presence of ovalbumin soluble protein (50 μg/mL), BMDCs were cocultured with carboxyfluorescein succinimidyl ester (CFSE)-labeled naive ovalbumin-specific CD4^+ or CD8^+ T cells, which were isolated from splenocytes of OT II and OT I transgenic mice, respectively. After 3 days of coculture, CD25 (α subunit of IL-2 receptor)[108] expression was determined, along with the CFSE dilution, as markers of T-cell activation and proliferation, respectively. […]
Supernatants from CD4^+ and CD8^+ T cells after 72 h of co-incubation with BMDCs (pretreated with desmuramylpeptides [10 μM] and washed) were collected as described above. The cytokine concentrations were determined with the Cytometric Bead Array Mouse Th1/Th2/Th17 Cytokine Kit (contents: IL-2, IL-4, IL-6, IFN-γ, TNF, IL-17A, IL-10; BD Bioscience) on an Attune NxT flow cytometer (Thermo Fisher Scientific, Waltham, MA, U.S.A.). […] The data were analyzed using the FlowJo (Tree Star, Inc., Ashland, OR, U.S.A.) and Prism (GraphPad, San Diego, CA, U.S.A.) software. […]

On to `CCCCCCCCCCCCCCCCCC(=O)Oc1ccc(/C=C/C(=O)NCC(=O)N[C@H](C(=O)N[C@H](CCC(=O)OCC)C(=O)OCC)C(C)C)cc1OC` [Compound 75, Diethyl ((E)-3-(3-Methoxy-4-(stearoyloxy)phenyl)acryloyl)glycyl-L-valyl-D-glutamate], for which the “Ovalbumin-specific IgG2a response (in words)” value in the assay with NIH/OlaHsd mice (mannosylated liposomes, 0.15 μmol adjuvant per dose) is given as “enhanced the production of IgG2a antibodies”. Besides, the “Ovalbumin-specific IgG1 response (in words)” value in the assay with NIH/OlaHsd mice (negatively charged liposomes, 0.15 μmol adjuvant per dose) is recorded as “diminished IgG1 activity”. Also, the “Ovalbumin-specific IgG levels compared to controls without adjuvant (in words)” value in the assay on NIH/OlaHsd mice (regardless of the liposomal composition) was “increased the levels of IgG antibodies”. Moreover, the “Log10 (anti-OVA IgG1/anti-OVA IgG2a)” value in the assay with NIH/OlaHsd mice (anionic liposomes) was 1.84 ± 0.20; in the assay with NIH/OlaHsd mice (mannosylated liposomes), 2.15 ± 0.17; in the assay with NIH/OlaHsd mice (neutral liposomes) it was 2.27 ± 0.17.
As to `COc1cc(/C=C/C(=O)NCC(=O)N[C@H](C(=O)N[C@H](CCC(=O)OC2CCCC2)C(=O)OC2CCCC2)C(C)C)ccc1O` [Compound 68, Dicyclopentyl ((E)-3-(4-Hydroxy-3-methoxyphenyl)acryloyl)glycyl-L-valyl-D-glutamate], in assay [1], the “Levels of IL-2, IL-6, IFN-γ, TNF-α and IL-17A in coculture supernatants” value is recorded as “elevated levels”; the “Levels of Th2-associated IL-4 and IL-10 in coculture supernatants” value is “unaffected levels”.
